Reference: US5506207A, “GNRH antagonists XIII” (The Salk Institute for Biological Studies, priority 1994, dated 1996)
“Also recorded” adds a separate entry of the source. Square brackets hold non-standard residues; d marks the D form. Peptide text beside a SMILES is read from it. * marks the point of attachment. dPhe(4-NH2) = Nc1ccc(C[C@@H](N)C(=O)O)cc1; dPhe(4-Cl) = N[C@H](Cc1ccc(Cl)cc1)C(=O)O; Phe(4-NH2) = Nc1ccc(C[C@H](N)C(=O)O)cc1; d2Nal = N[C@H](Cc1ccc2ccccc2c1)C(=O)O; Lys(iPr) = CC(C)NCCCC[C@H](N)C(=O)O; d3Pal = N[C@H](Cc1cccnc1)C(=O)O; X1 = Nc1n[nH]c(NCC(=O)*)n1

Columns and labels:
[1] = system: mature female Sprague-Dawley rats; assay: examination of treated rats for tolerance and gelling at the point of injection; format: in vivo, rat; details: rats injected with peptide in bacteriostatic water
[2] = solubility in aqueous buffers; format: physicochemical; details: pH from about 5 to about 7

Structure (SMILES): CC(=O)N[C@H](Cc1ccc2ccccc2c1)C(=O)N[C@H](Cc1ccc(Cl)cc1)C(=O)N[C@H](Cc1cccnc1)C(=O)N[C@@H](CO)C(=O)N[C@@H](Cc1ccc(NC(=O)CNc2nc(N)n[nH]2)cc1)C(=O)N[C@H](Cc1ccc(NC(=O)CNc2nc(N)n[nH]2)cc1)C(=O)N[C@@H](CC(C)C)C(=O)N[C@@H](CCCCNC(C)C)C(=O)N1CCC[C@H]1C(=O)N[C@H](C)C(N)=O [Peptide No. 1, [Ac-β-D-2NAL^1, (4Cl)D-Phe^2, D-3PAL^3, Aph(Gly)(atz)^5, D-Aph(Gly)(atz)^6, ILys^8, D-Ala^10]-GnRH] (Ac-[d2Nal][dPhe(4-Cl)][d3Pal]S[Phe(4-NH2)](X1)[dPhe(4-NH2)](X1)L[Lys(iPr)]P[dA]-NH2)
- tolerance and gelling at the point of injection [1]: very well tolerated with no significant gelling at the point of injection being detectable; also recorded: resistance to in vivo gelling
- solubility in aqueous buffers [2]: solubility in aqueous buffers at a pH of from about 5 to about 7
